Assay results taken from ChEMBL document CHEMBL1156714, “Microwave induced synthesis of novel 8,9-dihydro-7H-pyrimido[4,5-b][1,4]diazepines as potential antitumor agents” (2008).
Calls of active or inactive are those of the source. The calls are words filed in the database; no cut-off is given here.

Key:
BT-549 = test: Growth inhibition of human BT549 cells after 48 hrs by SRB assay; format: functional; conditions: BT-549, 48 h
NCI-60 = test: Growth inhibition of human NCI-60 cells at 1.0 uM; format: functional, cell-based
[1] = Growth inhibition of human HL60(TB) cells after 48 hrs by SRB assay; format: functional, HL-60(TB)
SR = test: Growth inhibition of human SR cells after 48 hrs by SRB assay; format: functional
NCI-H522 = test: Growth inhibition of human NCI-H522 cells after 48 hrs by SRB assay; format: functional; conditions: NCI-H522, 48 h; for CC50: read-out: LC50 (the source's name)
HCT-15 = test: Growth inhibition of human HCT15 cells after 48 hrs by SRB assay; format: functional; conditions: HCT-15, 48 h; for CC50: read-out: LC50 (the source's name)
IGROV-1 = test: Growth inhibition of human IGROV1 cells after 48 hrs by SRB assay; format: functional; conditions: IGROV-1, 48 h; for CC50: read-out: LC50 (the source's name)
UO-31 = test: Growth inhibition of human UO31 cells after 48 hrs by SRB assay; format: functional; conditions: UO-31, 48 h; for CC50: read-out: LC50 (the source's name)
Hs-578T = test: Growth inhibition of human HS578T cells after 48 hrs by SRB assay; format: functional; conditions: for CC50: read-out: LC50 (the source's name)
RPMI-8226 = test: Growth inhibition of human RPMI8226 cells after 48 hrs by SRB assay; format: functional; conditions: RPMI-8226, 48 h; for CC50: read-out: LC50 (the source's name)
HCT-116 = test: Growth inhibition of human HCT116 cells after 48 hrs by SRB assay; format: functional; conditions: HCT-116, 48 h; for CC50: read-out: LC50 (the source's name)
RXF 393 [2] = test: Growth inhibition of human RXF393 cells after 48 hrs by SRB assay; format: functional; conditions: RXF 393, 48 h
HOP-62 = test: Growth inhibition of human HOP62 cells after 48 hrs by SRB assay; format: functional; conditions: HOP-62, 48 h
[3] = Growth inhibition of human OVACR5 cells after 48 hrs by SRB assay; format: functional
PC-3 = test: Growth inhibition of human PC3 cells after 48 hrs by SRB assay; format: functional; conditions: PC-3, 48 h
K562 = test: Growth inhibition of human K562 cells after 48 hrs by SRB assay; format: functional; conditions: K562, 48 h
MOLT-4 = test: Growth inhibition of human MOLT4 cells after 48 hrs by SRB assay; format: functional; conditions: MOLT-4, 48 h
A549 = test: Growth inhibition of human A549 cells after 48 hrs by SRB assay; format: functional; conditions: A549, 48 h
NCI-H322M = test: Growth inhibition of human NCI-H322M cells after 48 hrs by SRB assay; format: functional
COLO 205 = test: Growth inhibition of human COLO205 cells after 48 hrs by SRB assay; format: functional; conditions: COLO 205, 48 h
HCC 2998 = test: Growth inhibition of human HCC2998 cells after 48 hrs by SRB assay; format: functional; conditions: HCC 2998, 48 h
HT-29 = test: Growth inhibition of human HT29 cells after 48 hrs by SRB assay; format: functional; conditions: HT-29, 48 h
KM12 = test: Growth inhibition of human KM12 cells after 48 hrs by SRB assay; format: functional; conditions: KM12, 48 h
SW-620 = test: Growth inhibition of human SW620 cells after 48 hrs by SRB assay; format: functional; conditions: SW-620, 48 h
SF-268 = test: Growth inhibition of human SF268 cells after 48 hrs by SRB assay; format: functional; conditions: SF-268, 48 h
SF-295 = test: Growth inhibition of human SF295 cells after 48 hrs by SRB assay; format: functional; conditions: SF-295, 48 h
SNB-75 = test: Growth inhibition of human SNB75 cells after 48 hrs by SRB assay; format: functional; conditions: SNB-75, 48 h
U-251 = test: Growth inhibition of human U251 cells after 48 hrs by SRB assay; format: functional; conditions: U-251, 48 h
LOX IMVI = test: Growth inhibition of human LOX IMVI cells after 48 hrs by SRB assay; format: functional
[4] = Growth inhibition of human OVACR3 cells after 48 hrs by SRB assay; format: functional
[5] = Growth inhibition of human OVACR4 cells after 48 hrs by SRB assay; format: functional
[6] = Growth inhibition of human […] cells after 48 hrs by SRB assay; format: functional
A498 = test: Growth inhibition of human A498 cells after 48 hrs by SRB assay; format: functional; conditions: A498, 48 h
ACHN = test: Growth inhibition of human ACHN cells after 48 hrs by SRB assay; format: functional
RXF 393 [7] = test: Growth inhibition of human […] cells after 48 hrs by SRB assay; format: functional; conditions: RXF 393, 48 h
TK-10 = test: Growth inhibition of human TK10 cells after 48 hrs by SRB assay; format: functional; conditions: TK-10, 48 h
DU-145 = test: Growth inhibition of human DU145 cells after 48 hrs by SRB assay; format: functional; conditions: DU-145, 48 h
MCF7 = test: Growth inhibition of human MCF7 cells after 48 hrs by SRB assay; format: functional; conditions: MCF7, 48 h
NCI/ADR-RES = test: Growth inhibition of human NCI/ADR-RES cells after 48 hrs by SRB assay; format: functional
MDA-MB-231 = test: Growth inhibition of human MDA-MB-231 cells after 48 hrs by SRB assay; format: functional; conditions: MDA-MB-231, 48 h
MDA-MB-468 = test: Growth inhibition of human MDA-MB-468 cells after 48 hrs by SRB assay; format: functional; conditions: MDA-MB-468, 48 h
[8] = read-out: LC50 (the source's name)

In the case of `Nc1ncnc2c1N=C(c1ccc3c(c1)OCO3)CC(c1ccc([N+](=O)[O-])cc1)N2` (racemic), the GI50 (BT-549) was 1.68 µM, the CC50 (BT-549; [8]) was over 100 µM and the Activity (NCI-60) was “Active”. For the same compound, the LC100 [1] was over 100 µM, the GI50 ([1]; Homo sapiens, HL-60, 48 h) was 13.1 µM and the GI50 (SR) was 2.37 µM. The LC50 (concentration killing 50% of cells) (SR) was over 100 µM, the GI50 (NCI-H522) was 6.78 µM and the CC50 (NCI-H522) was over 100 µM. For the same compound, the GI50 (HCT-15) was 9.55 µM, the CC50 (HCT-15) was over 100 µM and the GI50 (IGROV-1) was 0.068 µM. It also gave a CC50 (IGROV-1) of 25.5 µM, a GI50 (UO-31) of 18.1 µM and a CC50 (UO-31) of over 100 µM. For the same compound, the GI50 (Hs-578T) was 9.18 µM, the CC50 (Hs-578T) was over 100 µM and the GI50 (RPMI-8226) was 0.19 µM. For the same compound, the CC50 (RPMI-8226) was over 100 µM, the GI50 (HCT-116) was 18.2 µM and the CC50 (HCT-116) was over 100 µM. The GI50 (RXF 393 [2]) was 7.19 µM and the CC50 (RXF 393 [2]; [8]) was over 100 µM.

In the case of `Nc1ncnc2c1N=C(c1ccc3c(c1)OCO3)CC(c1ccc(Cl)cc1)N2` (racemic), the GI50 (HOP-62) was 16.6 µM, the CC50 (HOP-62; [8]) was over 100 µM and the GI50 [3] was 18.3 µM. For the same compound, the CC50 [3, 8] was over 100 µM, the GI50 (PC-3) was 9.06 µM and the CC50 (PC-3; [8]) was 50.8 µM. The Activity (NCI-60) was “Active”, the GI50 ([1]; Homo sapiens, HL-60, 48 h) was 5.37 µM and the CC50 ([1]; Homo sapiens, HL-60, 48 h, read-out: LC50 (the source's name)) was over 100 µM. For the same compound, the GI50 (K562) was 4.27 µM, the LC50 (K562) was over 100 µM and the GI50 (MOLT-4) was 5.85 µM. For the same compound, the CC50 (MOLT-4; [8]) was over 100 µM, the GI50 (A549) was 11.6 µM and the LC50 (A549) was 78.3 µM. The GI50 (NCI-H322M) was 16.9 µM, the CC50 (NCI-H322M; [8]) was over 100 µM and the GI50 (NCI-H522) was 2.37 µM. The CC50 (NCI-H522) was over 100 µM, the GI50 (COLO 205) was 15 µM and the CC50 (COLO 205; [8]) was over 100 µM. It also gave a GI50 (HCC 2998) of 5.88 µM, an LC50 (concentration killing 50% of cells) (HCC 2998) of over 100 µM and a GI50 (HCT-15) of 3.14 µM. The CC50 (HCT-15) was 55.2 µM, the GI50 (HT-29) was 3.81 µM and the CC50 (HT-29; [8]) was over 100 µM. It also gave a GI50 (KM12) of 2.03 µM, a CC50 (KM12; [8]) of over 100 µM and a GI50 (SW-620) of 4.91 µM. The CC50 (SW-620; [8]) was over 100 µM, the GI50 (SF-268) was 8.52 µM and the LC50 (50% lethal concentration) (SF-268) was over 100 µM. For the same compound, the GI50 (SF-295) was 14.7 µM, the LC50 (SF-295) was over 100 µM and the GI50 (SNB-75) was 5.22 µM. The CC50 (SNB-75; [8]) was over 100 µM, the GI50 (U-251) was 6.19 µM and the CC50 (U-251; [8]) was 78.9 µM. The GI50 (LOX IMVI) was 10.1 µM, the CC50 (LOX IMVI; [8]) was over 100 µM and the GI50 (IGROV-1) was 0.35 µM. It also gave a CC50 (IGROV-1) of 42.8 µM, a GI50 [4] of 3.71 µM and an LC50 [4] of 83 µM. It also gave a GI50 [5] of 18.3 µM, an LC50 [5] of over 100 µM and a GI50 [6] of 4.66 µM. For the same compound, the CC50 [6, 8] was over 100 µM, the GI50 (A498) was 5.94 µM and the LC50 (A498) was over 100 µM. For the same compound, the GI50 (ACHN) was 8.25 µM, the LC50 (lethal concentration 50%) (ACHN) was over 100 µM and the GI50 (RXF 393 [7]) was 2.51 µM. It also gave a CC50 (RXF 393 [7]; [8]) of 59.3 µM, a GI50 (TK-10) of 8.23 µM and a CC50 (TK-10; [8]) of over 100 µM. It also gave a GI50 (UO-31) of 7.48 µM, a CC50 (UO-31) of over 100 µM and a GI50 (DU-145) of 16.8 µM. For the same compound, the CC50 (DU-145; [8]) was 65.9 µM, the GI50 (MCF7) was 3.61 µM and the LC50 (MCF7) was over 100 µM. It also gave a GI50 (NCI/ADR-RES) of 5.35 µM, a CC50 (NCI/ADR-RES; [8]) of over 100 µM and a GI50 (MDA-MB-231) of 2.7 µM. The CC50 (MDA-MB-231; [8]) was 55.6 µM, the GI50 (Hs-578T) was 1.07 µM and the CC50 (Hs-578T) was over 100 µM. The GI50 (MDA-MB-468) was 10.1 µM, the CC50 (MDA-MB-468; [8]) was over 100 µM and the GI50 (RPMI-8226) was 1.5 µM. The CC50 (RPMI-8226) was over 100 µM, the GI50 (HCT-116) was 10.7 µM and the CC50 (HCT-116) was 47.5 µM.

With `COc1ccc(C2=Nc3c(N)ncnc3NC(c3ccc4c(c3)OCO4)C2)cc1` (racemic) the Activity (NCI-60) was “inactive”.

With `COc1ccc(C2CC(c3ccc4c(c3)OCO4)=Nc3c(N)ncnc3N2)cc1` (racemic) the Activity (NCI-60) was “inactive”.

In the case of `Nc1ncnc2c1N=C(c1ccc(Cl)cc1)CC(c1ccc3c(c1)OCO3)N2` (racemic), the Activity (NCI-60) was “inactive”.

With `Nc1ncnc2c1N=C(c1ccc([N+](=O)[O-])cc1)CC(c1ccc3c(c1)OCO3)N2` (racemic) the Activity (NCI-60) was “inactive”.
